Molecules are shown by their SMILES.

Here are results for 26 molecules from ChEMBL document CHEMBL4130605, “7α,20-Epoxy-ent-kaurane Diterpenoids from the Aerial Parts of Isodon pharicus” (J Nat Prod, 2018).

Format in all cases: functional, cell-based
The subject of one test is HL-60. Briefly: Cytotoxicity against human HL60 cells after 48 hrs by MTS assay. The following applies: HL-60, 48 h.
Another test concerns A549. Briefly: Cytotoxicity against human A549 cells after 48 hrs by MTS assay. The following applies: A549, 48 h.
For a further test, the system named is SMMC-7721. Briefly: Cytotoxicity against human SMMC7721 cells after 48 hrs by MTS assay. The following applies: SMMC-7721, 48 h. In general terms: Tetrazolium dyes change colour on reduction, which living cells bring about.
Another test concerns MCF7. Briefly: Cytotoxicity against human MCF7 cells after 48 hrs by MTS assay. The following applies: MCF7, 48 h.
A further test has as its system SW480. Briefly: Cytotoxicity against human SW480 cells after 48 hrs by MTS assay. The following applies: SW480, 48 h.

The IC50 is the point on the concentration scale where inhibition reaches its midpoint. A higher IC50 goes with a need for much substance. Take `COC[C@@H]1C(=O)[C@]23[C@H](O)[C@H]1[C@@H](O)C[C@H]2[C@]12CCC[C@@](C)(CO)[C@H]1[C@H](O)[C@]3(O)OC2`: the IC50 in the test on HL-60, in the test with A549, in the test with SMMC-7721, with MCF7 and in the test on SW480 was over 10 µM in each case.
As for `C=C1C(=O)[C@]23[C@H](O)[C@H]1[C@@H](O)C[C@H]2[C@]12CCC[C@@](C)(CO)[C@H]1[C@H](O)[C@]3(O)OC2`, the IC50 with HL-60, with A549, in the test with SMMC-7721, in the test with MCF7 and in the test with SW480 was over 10 µM throughout.
Consider `C=C1[C@@H](O)[C@]23[C@H](O)[C@H]1CC[C@H]2[C@@]12CO[C@@]3(O)[C@@H](O)[C@@H]1[C@](C)(COC(C)=O)CC[C@@H]2O`, for which the IC50 in the test on HL-60, in the test with A549, in the test with SMMC-7721, in the test with MCF7 and with SW480 was over 10 µM in each case.
Consider `C=C1C(=O)[C@]23C[C@H]1CC[C@H]2[C@@]12CO[C@@]3(O)[C@@H](O)[C@@H]1[C@](C)(COC(C)=O)CC[C@@H]2OC(C)=O`, for which the IC50 worked out at 2.43 µM in the test with HL-60; 3.61 µM with A549; 2.03 µM in the test on SMMC-7721; 2.96 µM in the test on MCF7; 1.01 µM with SW480.
For `COC[C@@H]1C(=O)[C@]23C[C@H]1CC[C@H]2[C@@]12CO[C@@]3(O)[C@@H](O)[C@@H]1C(C)(C)CC[C@@H]2OC(C)=O` (single isomer, unassigned), in that order: over 10 µM, over 10 µM, over 10 µM, over 10 µM and over 10 µM.
The like results for `C=C1[C@H]2C[C@@]3([C@@H]1O)[C@@H](C[C@@H]2O)[C@]12CCC[C@@](C)(COC(C)=O)[C@H]1[C@H](O)[C@]3(O)OC2` were, in that order, over 10 µM, over 10 µM, over 10 µM, over 10 µM and over 10 µM.
The like results for `C=C1[C@@H](O)[C@]23[C@H](O)[C@H]1C[C@H](OC(C)=O)[C@H]2[C@]12CCC[C@@](C)(COC(C)=O)[C@H]1[C@H](OC(C)=O)[C@]3(O)O[C@@H]2O` (relative stereo) were, in that order, 5.53 µM, 6.23 µM, 2.69 µM, 3.86 µM and 3.17 µM.
With `COC[C@H]1C(=O)[C@]23C[C@H]1CC[C@H]2[C@@]12CO[C@@]3(O)[C@@H](O)[C@@H]1C(C)(C)CC[C@@H]2OC(C)=O` (relative stereo), the IC50 with HL-60 is 3.77 µM; in the test with A549, 6.8 µM; with SMMC-7721, 3.99 µM; in the test on MCF7, 3.2 µM; in the test with SW480, 1.23 µM.
For the molecule `C=C1[C@@H](O)[C@]23[C@H](O)[C@H]1C[C@H](OC(C)=O)[C@H]2[C@]12CCC[C@@](C)(COC(C)=O)[C@H]1[C@H](O)[C@]3(O)O[C@@H]2O` (relative stereo), the IC50 in the test with HL-60, in the test on A549, in the test on SMMC-7721, in the test with MCF7 and with SW480 was over 10 µM each time.
With `C=C1[C@@H]2C[C@H](O)[C@H]3[C@@]45CO[C@@](O)([C@@H](O)[C@@H]4C(C)(C)CC[C@@H]5OC(C)=O)[C@]3(C2)[C@@H]1O`, the IC50 in the test on HL-60, in the test on A549, in the test with SMMC-7721, in the test on MCF7 and in the test with SW480 was over 10 µM throughout.
`COC[C@H]1C(=O)[C@]23C[C@@H]1CC[C@H]2[C@@]12CO[C@]3(O)[C@@H](O)[C@@H]1C(C)(C)CC[C@@H]2O`: the IC50 was 17.2 µM with HL-60; 14.3 µM with A549; 14.6 µM with SMMC-7721; 13.8 µM in the test on MCF7; 7.83 µM in the test on SW480.
For `COC[C@@H]1C(=O)[C@]23[C@H](O)[C@H]1CC[C@H]2[C@@]12CO[C@@]3(O)[C@@H](O)[C@@H]1[C@](C)(CO)CC[C@@H]2O` (relative stereo), in that order: over 10 µM, over 10 µM, over 10 µM, over 10 µM and over 10 µM.
The like results for `C=C1C(=O)[C@]23C[C@H]1CC[C@H]2[C@]12CC[C@@H](O)[C@@](C)(COC(C)=O)[C@H]1[C@H](O)[C@]3(O)OC2` were, in that order, 12.5 µM, 16 µM, 14.2 µM, 14.7 µM and 3.74 µM.
For `CC(=O)O[C@H]1C(=O)[C@@]2(C)[C@H]([C@H](OC(=O)c3ccccc3)[C@]3(O)C[C@H](OC(=O)[C@H](O)[C@@H](NC(=O)c4ccccc4)c4ccccc4)C(C)=C1C3(C)C)[C@]1(OC(C)=O)CO[C@@H]1C[C@@H]2O` [PACLITAXEL], in that order: under 0.008 µM, under 0.008 µM, under 0.008 µM, under 0.008 µM and under 0.008 µM.
For the molecule `C=C1C(=O)[C@]23[C@H](O)[C@H]1CC[C@H]2[C@]12CC[C@@H](OC(C)=O)[C@@](C)(CO)[C@H]1[C@H](O)[C@]3(O)OC2`, the IC50 in the test with HL-60, in the test on A549, with SMMC-7721, in the test with MCF7 and with SW480 was over 10 µM throughout.
`C=C1C(=O)[C@]23[C@H](O)[C@H]1CC[C@H]2[C@]12CC[C@@H](O)[C@@](C)(COC(C)=O)[C@H]1[C@H](O)[C@]3(O)OC2`: the IC50 in the test with HL-60, with A549, with SMMC-7721, in the test on MCF7 and in the test on SW480 was over 10 µM in each case.
Take `C=C1[C@@H](O)[C@]23[C@H](O)[C@H]1C[C@H](OC(C)=O)[C@H]2[C@]12CCCC(C)(C)[C@H]1[C@H](O)[C@]3(O)O[C@@H]2O` (relative stereo): the IC50 in the test on HL-60, in the test with A549, with SMMC-7721, in the test with MCF7 and with SW480 was over 10 µM in each case.
Regarding `C=C1C(=O)[C@]23C[C@H]1C[C@@H](OC(C)=O)[C@H]2[C@@]12CO[C@@]3(O)[C@@H](O)[C@@H]1C(C)(C)CC[C@@H]2O`, the IC50 was determined as 5.36 µM with HL-60; 12.1 µM with A549; 12.7 µM in the test with SMMC-7721; 14.1 µM in the test on MCF7; 2.34 µM in the test on SW480.
The like results for `C=C1C(=O)[C@]23[C@H](O)[C@H]1CC[C@H]2[C@]12CC[C@@H](O)[C@@](C)(CO)[C@H]1[C@H](O)[C@]3(O)OC2` were, in that order, over 10 µM, over 10 µM, over 10 µM, over 10 µM and over 10 µM.
The like results for `C=C1[C@@H](O)[C@]23[C@H](O)[C@H]1C[C@H](OC(C)=O)[C@H]2[C@]12CCCC(C)(C)[C@H]1[C@H](O)[C@]3(O)O[C@@H]2OCC` (relative stereo) were, in that order, over 10 µM, over 10 µM, over 10 µM, over 10 µM and over 10 µM.
For `C=C1C(=O)[C@]23C[C@H]1C[C@H](O)[C@H]2[C@@]12CO[C@@]3(O)C[C@@H]1C(C)(C)CC[C@@H]2O` [RABDOCOETSIN C], in that order: 4.24 µM, 9.62 µM, 9.04 µM, 5.29 µM and 1.8 µM.
As for `C=C1C(=O)[C@]23[C@H](O)[C@H]1CC[C@H]2[C@@]12CO[C@@]3(O)[C@@H](O)[C@@H]1[C@](C)(CO)CC[C@@H]2O`, the IC50 with HL-60, in the test with A549, in the test on SMMC-7721, in the test with MCF7 and in the test with SW480 was over 10 µM in each case.
For `COC[C@H]1C(=O)[C@]23C[C@H]1CC[C@H]2[C@@]12CO[C@@]3(O)[C@@H](O)[C@@H]1[C@](C)(COC(C)=O)CC[C@@H]2O` (mixture of isomers), the IC50 in the test on HL-60 is 18 µM; with A549, 14.5 µM; in the test on SMMC-7721 it was 12.3 µM; in the test on MCF7 it was 16 µM; in the test with SW480, 9.68 µM.
The like results for `COC[C@H]1C(=O)[C@]23[C@H](O)[C@H]1[C@@H](O)C[C@H]2[C@]12CCC[C@@](C)(COC(C)=O)[C@H]1[C@H](O)[C@]3(O)OC2` (relative stereo) were, in that order, over 10 µM, over 10 µM, over 10 µM, over 10 µM and over 10 µM.
Consider `COC[C@H]1C(=O)[C@]23[C@H](O)[C@H]1CC[C@H]2[C@@]12CO[C@@]3(O)[C@@H](O)[C@@H]1[C@](C)(CO)CC[C@@H]2O` (relative stereo), for which the IC50 in the test on HL-60, with A549, with SMMC-7721, with MCF7 and in the test with SW480 was over 10 µM throughout.
With `C=C1C(=O)[C@]23[C@H](O)[C@H]1CC[C@H]2[C@@]12CO[C@@]3(O)[C@@H](O)[C@@H]1[C@](C)(COC(C)=O)CC[C@@H]2O`, the IC50 in the test on HL-60, in the test with A549, with SMMC-7721, with MCF7 and in the test with SW480 was over 10 µM each time.
